{
  "source": "patent US20080182874A1",
  "about": "“Novel Compounds” (priority 2004, published 2008)",
  "note": "pIC50: −log10 of the molar value.",
  "data": [
    {"target": "T1, P2X7 receptor (Homo sapiens, UniProt Q99572)", "T1 construct": "200 μl of a suspension of THP-1 cells (2.5×10^6 cells/ml) containing 10^−4M ethidium bromide; endogenous in cells; host or cells: THP-1 cells", "T1 sequence (Q99572 1-595)": "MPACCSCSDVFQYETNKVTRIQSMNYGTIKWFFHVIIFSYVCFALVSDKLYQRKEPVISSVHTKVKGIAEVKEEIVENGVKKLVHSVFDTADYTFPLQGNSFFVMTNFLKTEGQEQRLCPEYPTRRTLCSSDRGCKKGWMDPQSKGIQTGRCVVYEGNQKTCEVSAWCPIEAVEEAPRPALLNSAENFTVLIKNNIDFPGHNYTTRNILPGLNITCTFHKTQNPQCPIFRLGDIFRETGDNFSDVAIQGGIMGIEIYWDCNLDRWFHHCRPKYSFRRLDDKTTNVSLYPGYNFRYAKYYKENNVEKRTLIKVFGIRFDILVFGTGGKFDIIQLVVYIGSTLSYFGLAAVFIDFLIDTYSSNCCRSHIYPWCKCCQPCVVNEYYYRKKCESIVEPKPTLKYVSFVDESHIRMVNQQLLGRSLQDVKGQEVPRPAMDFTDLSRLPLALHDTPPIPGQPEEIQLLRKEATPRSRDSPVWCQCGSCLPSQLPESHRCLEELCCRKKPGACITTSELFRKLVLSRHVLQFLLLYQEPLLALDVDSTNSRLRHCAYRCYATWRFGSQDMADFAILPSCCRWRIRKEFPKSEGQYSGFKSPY", "experiment": "bbATP-induced ethidium bromide uptake in THP-1 cells (P2X7 antagonist activity)", "format": "cell-based", "conditions": "not given", "description": "(§1) Certain compounds such as benzoylbenzoyl adenosine triphosphate (bbATP) are known to be agonists of the P2X7 receptor, effecting the formation of pores in the plasma membrane (Drug Development Research (1996), 37(3), p. 126). Consequently, when the receptor is activated using bbATP in the presence of ethidium bromide (a fluorescent DNA probe), an increase in the fluorescence of intracellular DNA-bound ethidium bromide is observed. The increase in fluorescence can be used as a measure of P2X7 receptor activation and therefore to quantify the effect of a compound on the P2X7 receptor.\n(§2) In this manner, each of the title compounds of the Examples was tested for antagonist activity at the P2X7 receptor. […] The plate was covered with a plastics sheet and incubated at 37° C. for one hour. The plate was then read in a Perkin-Elmer fluorescent plate reader, excitation 520 nm, emission 595 nm, slit widths: Ex 15 nm, Em 20 nm. For the purposes of comparison, bbATP (a P2X7 receptor agonist) and pyridoxal 5-phosphate (a P2X7 receptor antagonist) were used separately in the test as controls.", "values": [
      {"molecule": "O=C(NCC12CC3CC(CC(C3)C1)C2)c1c(Cl)ccc2nc(N3CCC[C@@H](C(=O)O)C3)ccc12", "note": "[Example 3, 1-[6-Chloro-5-[[(tricyclo[3.3.1.1^3,7]dec-1-ylmethyl)amino]carbonyl]-2-quinolinyl]-(3R)-3-piperidinecarboxylic acid]", "pIC50": 7.10},
      {"molecule": "O=C(O)CCN[C@H]1CCCN(c2ccc3c(C(=O)NCC45CC6CC(CC(C6)C4)C5)c(Cl)ccc3n2)C1", "note": "[Example 12, N-[(3S)-1-[6-Chloro-5-[[(tricyclo[3.3.1.1^3,7]dec-1-ylmethyl)amino]carbonyl]-2-quinolinyl]-3-piperidinyl]-β-alanine]", "pIC50": 7.80}
    ]},
    {"target": "T1, P2X7 receptor", "experiment": "bbATP-induced ethidium bromide uptake in THP-1 cells (P2X7 antagonist activity)", "format": "cell-based", "conditions": "THP-1 cells, 10^-5M bbATP agonist, ethidium bromide fluorescence, 37° C. for one hour; negative logarithm of concentration reducing bbATP agonist activity by 50%; read-out: pIC50 (converted)", "description": "as §1, §2", "units": {"IC50": "µM"}, "values": [
      {"molecule": "O=C(O)c1cccc(-c2ccc3c(C(=O)NCC45CC6CC(CC(C6)C4)C5)c(Cl)ccc3n2)c1", "note": "[Example 24, 3-[6-Chloro-5-[[(tricyclo[3.3.1.1^3,7]dec-1-ylmethyl)amino]carbonyl]-2-quinolinyl]-benzoic acid]", "IC50": 0.0631}
    ]},
    {"tested_on": "not given", "experiment": "not given", "conditions": "not given", "units": {"melting point": "°C"}, "values": [
      {"molecule": "O=C(CC12CC3CC(CC(C3)C1)C2)Nc1c(Cl)ccc2nc(N3CCC(C(=O)O)CC3)ccc12", "note": "[Example 1, 1-[6-Chloro-5-[(tricyclo[3.3.1.1^3,7]dec-1-ylacetyl)amino]-2-quinolinyl]-4-piperidinecarboxylic acid]", "melting point": "240 to 241"},
      {"molecule": "O=C(NCC12CC3CC(CC(C3)C1)C2)c1c(Cl)ccc2nc(N3CCC[C@@H]3C(=O)O)ccc12", "note": "[Example 2, 1-[6-Chloro-5-[[(tricyclo[3.3.1.1^3,7]dec-1-ylmethyl)amino]carbonyl]-2-quinolinyl]-D-proline]", "melting point": "157 to 160"},
      {"molecule": "O=C(NCC12CC3CC(CC(C3)C1)C2)c1c(Cl)ccc2nc(N3CCC[C@@H](C(=O)O)C3)ccc12", "note": "[Example 3, 1-[6-Chloro-5-[[(tricyclo[3.3.1.1^3,7]dec-1-ylmethyl)amino]carbonyl]-2-quinolinyl]-(3R)-3-piperidinecarboxylic acid]", "melting point": "257 to 262"},
      {"molecule": "O=C(NCC12CC3CC(CC(C3)C1)C2)c1c(Cl)ccc2nc(N3CCC(n4cn[nH]c4=O)CC3)ccc12", "note": "[Example 4, 6-Chloro-2-[4-(1,5-dihydro-5-oxo-4H-1,2,4-triazol-4-yl)-1-piperidinyl]-N-(tricyclo[3.3.1.1^3,7]dec-1-ylmethyl)-5-quinolinecarboxamide]", "melting point": "294 to 295"},
      {"molecule": "O=C(O)CN1CCN(c2ccc3c(C(=O)NCC45CC6CC(CC(C6)C4)C5)c(Cl)ccc3n2)CC1", "note": "[Example 5, 4-[6-Chloro-5-[[(tricyclo[3.3.1.1^3,7]dec-1-ylmethyl)amino]carbonyl]-2-quinolinyl]-1-piperazineacetic acid]", "melting point": "179 to 183"},
      {"molecule": "O=C(NCC12CC3CC(CC(C3)C1)C2)c1c(Cl)ccc2nc(N3CC[C@H](NCCc4nnn[nH]4)C3)ccc12", "note": "[Example 6, 6-Chloro-2-[(3S)-3-[[2-(2H-tetrazol-5-yl)ethyl]amino]-1-pyrrolidinyl]-N-(tricyclo[3.3.1.1^3,7]dec-1-ylmethyl)-5-quinolinecarboxamide]", "melting point": "174 to 177"},
      {"molecule": "O=C(NCC12CC3CC(CC(C3)C1)C2)c1c(Cl)ccc2nc(N3CCC(C(=O)O)CC3)ccc12", "note": "[Example 7, 1-[6-Chloro-5-[[(tricyclo[3.3.1.1^3,7]dec-1-ylmethyl)amino]carbonyl]-2-quinolinyl]-4-piperidinecarboxylic acid]", "melting point": "231 to 235"},
      {"molecule": "O=C(O)CC1CCN(c2ccc3c(C(=O)NCC45CC6CC(CC(C6)C4)C5)c(Cl)ccc3n2)CC1", "note": "[Example 8, 1-[6-Chloro-5-[[(tricyclo[3.3.1.1^3,7]dec-1-ylmethyl)amino]carbonyl]-2-quinolinyl]-4-piperidineacetic acid]", "melting point": "212 to 214"},
      {"molecule": "O=C(NCC12CC3CC(CC(C3)C1)C2)c1c(Cl)ccc2nc(CCCCc3nnn[nH]3)ccc12", "note": "[Example 9, 6-Chloro-2-[4-(2H-tetrazol-5-yl)butyl]-N-(tricyclo[3.3.1.1^3,7]dec-1-ylmethyl)-5-quinolinecarboxamide]", "melting point": 221},
      {"molecule": "O=C(O)CCN[C@H]1CCCN(c2ccc3c(C(=O)NCC45CC6CC(CC(C6)C4)C5)c(Cl)ccc3n2)C1", "note": "[Example 12, N-[(3S)-1-[6-Chloro-5-[[(tricyclo[3.3.1.1^3,7]dec-1-ylmethyl)amino]carbonyl]-2-quinolinyl]-3-piperidinyl]-β-alanine]", "melting point": "176 to 189"},
      {"molecule": "O=C(NCC12CC3CC(CC(C3)C1)C2)c1c(Cl)ccc2nc(N3CCC(O)(C(=O)O)CC3)ccc12", "note": "[Example 17, 1-[6-Chloro-5-[[(tricyclo[3.3.1.1^3,7]dec-1-ylmethyl)amino]carbonyl]-2-quinolinyl]-4-hydroxy-4-piperidinecarboxylic acid]", "melting point": "200 to 204"},
      {"molecule": "O=C(NCC12CC3CC(CC(C3)C1)C2)c1c(Cl)ccc2nc(N3CCC(C(=O)O)(c4ccccc4)CC3)ccc12", "note": "[Example 18, 1-[6-Chloro-5-[[(tricyclo[3.3.1.1^3,7]dec-1-ylmethyl)amino]carbonyl]-2-quinolinyl]-4-phenyl-4-piperidinecarboxylic acid]", "melting point": "235 to 237"},
      {"molecule": "O=C(NCC12CC3CC(CC(C3)C1)C2)c1c(Cl)ccc2nc(N3C[C@@H]4[C@H](C3)[C@H]4C(=O)O)ccc12", "note": "[Example 19, (1R,5S)-3-[6-Chloro-5-[[(tricyclo[3.3.1.1^3,7]dec-1-ylmethyl)amino]carbonyl]-2-quinolinyl]-3-azabicyclo[3.1.0]hexane-6-carboxylic acid]", "melting point": "175 to 180"},
      {"molecule": "CS(=O)(=O)NC(=O)C1CCN(c2ccc3c(C(=O)NCC45CC6CC(CC(C6)C4)C5)c(Cl)ccc3n2)CC1", "note": "[Example 20, 6-Chloro-2-[4-[[(methylsulfonyl)amino]carbonyl]-1-piperidinyl]-N-(tricyclo[3.3.1.1^3,7]dec-1-ylmethyl)-5-quinolinecarboxamide]", "melting point": "170 to 173"},
      {"molecule": "O=C(NCC12CC3CC(CC(C3)C1)C2)c1c(Cl)ccc2nc(N3CCC(C(=O)NO)CC3)ccc12", "note": "[Example 21, 6-chloro-2-[4-[(hydroxyamino)carbonyl]-1-piperidinyl]-N-(tricyclo[3.3.1.1^3,7]dec-1-ylmethyl)-5-quinolinecarboxamide]", "melting point": "189 to 196"},
      {"molecule": "O=C(O)c1ccccc1-c1ccc2c(C(=O)NCC34CC5CC(CC(C5)C3)C4)c(Cl)ccc2n1", "note": "[Example 23, 2-[6-Chloro-5-[[(tricyclo[3.3.1.1^3,7]dec-1-ylmethyl)amino]carbonyl]-2-quinolinyl]-benzoic acid]", "melting point": "156 to 158"},
      {"molecule": "O=C(O)c1ccc(-c2ccc3c(C(=O)NCC45CC6CC(CC(C6)C4)C5)c(Cl)ccc3n2)cc1", "note": "[Example 25, 4-[6-Chloro-5-[[(tricyclo[3.3.1.1^3,7]dec-1-ylmethyl)amino]carbonyl]-2-quinolinyl]-benzoic acid]", "melting point": "316 to 317"},
      {"molecule": "O=C(O)CCNc1ccc2c(C(=O)NCC34CC5CC(CC(C5)C3)C4)c(Cl)ccc2n1", "note": "[Example 27, N-[6-Chloro-5-[[(tricyclo[3.3.1.1^3,7]dec-1-ylmethyl)amino]carbonyl]-2-quinolinyl]-β-alanine]", "melting point": "251 to 252"},
      {"molecule": "O=C(O)c1cncc(-c2ccc3c(C(=O)NCC45CC6CC(CC(C6)C4)C5)c(Cl)ccc3n2)c1", "note": "[Example 28, 5-[6-Chloro-5-[[(tricyclo[3.3.1.1^3,7]dec-1-ylmethyl)amino]carbonyl]-2-quinolinyl]-3-pyridinecarboxylic acid]", "melting point": 247}
    ]}
  ]
}
